From paper PMC11237012, “Synthesis and preliminary evaluation of novel PET probes for GSK-3 imaging” (Scientific Reports, 2024)

Experiment: Radiochemical stability in isotonic NaCl solution (rad-TLC)
Format: physicochemical
Conditions: 37 °C
Procedure: The stability of PET probes [^18F]2 and [^18F]6 was measured in isotonic NaCl solution (0.9% NaCl) and mouse and human serums at 37 °C for up to 120 min by rad-TLC at 0 min, 30 min, 60 min and 120 min post incubation. The results obtained are presented in Fig. 5 and SI-Figs. S10–S15, SI-Table S1. […] The plausible explanation of the instability of [^18F]6 could be attributed to the covalent interaction of [^18F]6’s SO2F group with primary amines of amino acid residues present in the protein rich mouse and human serums. In fact, in an unrelated study, Zhao et al. reported formation of sulfonamide bond between sulfuryl fluoride and primary amine of conserved lysine residues of different kinases. […] Based on 2’s favorable blood–brain barrier permeability, nanomolar binding affinity and PET probe [^18F]2’s excellent stability in both mouse and human serums, further in vivo evaluations were performed only with PET probe [^18F]2.
Stability of [^18F]2 and [^18F]6 was assessed in isotonic NaCl solution and human and mouse serums. To perform this stability assay, 100 µL of [^18F]2 (~ 37.0 MBq) or 100 µL of [^18F]6 (~ 37.0 MBq) as in final formulation was added to 100 µL of human serum or mouse serum in a microcentrifuge tube. The resultant mixture was incubated at 37 °C for 120 min. To assess the radiochemical stability of the probes, a small aliquot (~ 0.5 µL) was taken out from the mixture in triplicate at 0 min, 30 min, 60 min and 120 min during incubation, and analyzed on a rad-TLC using 0.5:9.5 methanol: chloroform as a mobile phase using i-TLC to estimate the stability of [^18F]2 or [^18F]6 at different time points post-incubation. After Stability preparative processes initial i-TLC development was considered as 0 min.

- Percentage of intact probe (0 min): 100 ± 0.0%
- Percentage of intact probe (30 min): 100 ± 0.0%
- Percentage of intact probe (60 min): 100 ± 0.0%
SMILES: O=C(Nc1cnccc1-c1ccc([18F])cc1)c1ccnc(NC(=O)C2CC2)c1 [[^18F]2]
